This is an account of results in paper PMC9599461, “Stereoselectivity in the Membrane Transport of Phenylethylamine Derivatives by Human Monoamine Transporters and Organic Cation Transporters 1, 2, and 3” (Biomolecules, 2022).

Data set [1] relates to OCT2 A270S variant. The data set can be described thus: in vitro. Particulars: human, Stereoselectivity OCT2_A270S, 100 μM racemic substance, two minutes, uptake ratio of enantiomers.
A further data set deals with T1, OCT2 (wild-type) (Homo sapiens, UniProt O15244).
T1 sequence (O15244 1-555 S270A): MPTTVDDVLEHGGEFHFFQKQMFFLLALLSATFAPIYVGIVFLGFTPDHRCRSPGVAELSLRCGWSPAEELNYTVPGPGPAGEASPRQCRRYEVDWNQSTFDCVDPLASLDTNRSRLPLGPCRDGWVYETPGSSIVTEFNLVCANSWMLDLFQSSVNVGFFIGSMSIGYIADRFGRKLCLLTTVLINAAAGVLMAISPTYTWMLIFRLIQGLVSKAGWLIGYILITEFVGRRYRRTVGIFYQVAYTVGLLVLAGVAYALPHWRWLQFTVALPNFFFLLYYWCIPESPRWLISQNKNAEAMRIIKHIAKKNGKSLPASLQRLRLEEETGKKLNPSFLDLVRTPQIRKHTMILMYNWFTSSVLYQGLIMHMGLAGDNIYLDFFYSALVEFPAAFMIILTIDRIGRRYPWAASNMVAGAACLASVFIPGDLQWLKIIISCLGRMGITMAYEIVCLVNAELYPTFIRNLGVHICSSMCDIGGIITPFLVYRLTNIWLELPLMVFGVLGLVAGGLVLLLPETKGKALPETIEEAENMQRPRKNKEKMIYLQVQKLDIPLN
The data set can be described thus: Stereoselective uptake into OCT2 (wild-type)-overexpressing HEK293 cells. As to conditions: human, Stereoselectivity OCT2_WT, 100 μM racemic substance, two minutes; uptake ratio of enantiomers, given as for (R).

Data set [2] deals with OCT2 wild-type versus A270S variant. The data set can be described thus: in vitro. As to conditions: human, Transporter selectivity, OCT2 wild-type versus A270S, 100 μM racemic substance, two minutes.
A further data set addresses SERT (Homo sapiens, UniProt P31645). The data set can be described thus: Stereoselective uptake into SERT-overexpressing HEK293 cells. As to conditions: SERT; result in words.
Another data set addresses NET (Homo sapiens, UniProt P23975). Put plainly: Stereoselective uptake into NET-overexpressing HEK293 cells. As to conditions: for Saturable net uptake: result in words.
The target in a further data set is DAT (Homo sapiens, UniProt Q01959). The data set can be described thus: Stereoselective uptake into DAT-overexpressing HEK293 cells. As to conditions: for Saturable net uptake: result in words.
A further data set concerns the target T2, OCT3 (Homo sapiens, UniProt O75751).
T2 sequence (O75751 1-556): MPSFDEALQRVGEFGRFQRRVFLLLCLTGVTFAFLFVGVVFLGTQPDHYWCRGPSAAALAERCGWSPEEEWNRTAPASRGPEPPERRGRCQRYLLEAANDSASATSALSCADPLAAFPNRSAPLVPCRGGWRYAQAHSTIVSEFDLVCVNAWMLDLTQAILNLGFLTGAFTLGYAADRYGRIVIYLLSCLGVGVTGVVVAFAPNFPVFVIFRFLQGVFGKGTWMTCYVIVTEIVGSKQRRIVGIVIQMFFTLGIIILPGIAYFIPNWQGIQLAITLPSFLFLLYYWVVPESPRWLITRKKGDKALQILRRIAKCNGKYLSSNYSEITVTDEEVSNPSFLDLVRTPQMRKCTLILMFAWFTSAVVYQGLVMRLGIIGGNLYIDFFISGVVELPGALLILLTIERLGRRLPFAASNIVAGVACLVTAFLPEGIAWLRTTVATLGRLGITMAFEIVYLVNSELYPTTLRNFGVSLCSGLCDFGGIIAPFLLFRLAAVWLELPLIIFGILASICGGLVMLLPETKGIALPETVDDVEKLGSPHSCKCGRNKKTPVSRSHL
Put plainly: Stereoselective uptake into OCT3-overexpressing HEK293 cells. As to conditions: for Saturable net uptake: result in words.

In the next data set the target is T3, OCT1 (Homo sapiens, UniProt O15245).
T3 sequence (O15245 1-554): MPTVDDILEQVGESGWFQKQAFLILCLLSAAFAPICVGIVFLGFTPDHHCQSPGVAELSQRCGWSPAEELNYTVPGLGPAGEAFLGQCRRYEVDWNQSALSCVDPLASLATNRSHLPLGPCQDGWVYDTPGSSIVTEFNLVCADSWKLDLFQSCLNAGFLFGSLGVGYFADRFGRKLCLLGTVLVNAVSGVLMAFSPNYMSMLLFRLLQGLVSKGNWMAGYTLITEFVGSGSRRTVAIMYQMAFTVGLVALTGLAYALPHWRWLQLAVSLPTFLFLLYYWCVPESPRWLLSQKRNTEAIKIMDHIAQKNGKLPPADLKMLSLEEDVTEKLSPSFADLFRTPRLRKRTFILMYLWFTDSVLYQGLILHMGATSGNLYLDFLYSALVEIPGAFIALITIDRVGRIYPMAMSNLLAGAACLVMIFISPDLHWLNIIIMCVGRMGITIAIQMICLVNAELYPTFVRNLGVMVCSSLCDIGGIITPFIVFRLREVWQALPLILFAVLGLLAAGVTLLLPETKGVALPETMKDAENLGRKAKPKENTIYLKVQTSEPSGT
The data set can be described thus: Stereoselective uptake into OCT1-overexpressing HEK293 cells. As to conditions: for Saturable net uptake: result in words.

In another data set the target is T4, OCT2 (Homo sapiens, UniProt O15244).
T4 sequence (O15244 1-555 S270A): T1 sequence (O15244 1-555 S270A)
The data set can be described thus: Stereoselective uptake into OCT2 (wild-type)-overexpressing HEK293 cells. As to conditions: for Clint ± SEM / selectivity ratio at 2 min: OCT2; for Clint ± SEM: quotient of vmax over Km; for selectivity ratio at 2 min: human, ratio between enantiomers.

Data set [3] deals with OCT2 A270S variant. Put plainly: Stereoselective uptake into OCT2 A270S variant-overexpressing HEK293 cells. Particulars: OCT2 wild-type versus A270S, 100 μM racemic substance, two minutes; given as for WT.
The mark [4] stands for this setting: NET, ratio between enantiomers, given as for (S) or for 2.

Each structure is given as a SMILES string.

Chain of NET (P23975 whole entry): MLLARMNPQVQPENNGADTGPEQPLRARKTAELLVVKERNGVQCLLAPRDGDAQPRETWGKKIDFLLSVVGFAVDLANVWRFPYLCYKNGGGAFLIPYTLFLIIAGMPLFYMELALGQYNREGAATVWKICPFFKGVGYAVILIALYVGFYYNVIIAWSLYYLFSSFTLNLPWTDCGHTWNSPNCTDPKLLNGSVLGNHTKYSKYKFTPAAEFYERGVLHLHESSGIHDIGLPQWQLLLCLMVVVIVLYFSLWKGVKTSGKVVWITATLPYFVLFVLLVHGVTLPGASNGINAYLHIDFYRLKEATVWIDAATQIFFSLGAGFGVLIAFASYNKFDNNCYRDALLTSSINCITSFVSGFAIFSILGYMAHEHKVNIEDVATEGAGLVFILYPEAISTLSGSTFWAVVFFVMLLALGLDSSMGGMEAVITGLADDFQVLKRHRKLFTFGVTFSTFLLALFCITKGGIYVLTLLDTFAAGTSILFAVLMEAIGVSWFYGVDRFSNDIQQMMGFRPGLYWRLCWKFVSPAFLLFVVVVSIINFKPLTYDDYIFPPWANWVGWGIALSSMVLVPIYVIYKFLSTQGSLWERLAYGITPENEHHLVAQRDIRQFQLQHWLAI
Chain of SERT (P31645 whole entry): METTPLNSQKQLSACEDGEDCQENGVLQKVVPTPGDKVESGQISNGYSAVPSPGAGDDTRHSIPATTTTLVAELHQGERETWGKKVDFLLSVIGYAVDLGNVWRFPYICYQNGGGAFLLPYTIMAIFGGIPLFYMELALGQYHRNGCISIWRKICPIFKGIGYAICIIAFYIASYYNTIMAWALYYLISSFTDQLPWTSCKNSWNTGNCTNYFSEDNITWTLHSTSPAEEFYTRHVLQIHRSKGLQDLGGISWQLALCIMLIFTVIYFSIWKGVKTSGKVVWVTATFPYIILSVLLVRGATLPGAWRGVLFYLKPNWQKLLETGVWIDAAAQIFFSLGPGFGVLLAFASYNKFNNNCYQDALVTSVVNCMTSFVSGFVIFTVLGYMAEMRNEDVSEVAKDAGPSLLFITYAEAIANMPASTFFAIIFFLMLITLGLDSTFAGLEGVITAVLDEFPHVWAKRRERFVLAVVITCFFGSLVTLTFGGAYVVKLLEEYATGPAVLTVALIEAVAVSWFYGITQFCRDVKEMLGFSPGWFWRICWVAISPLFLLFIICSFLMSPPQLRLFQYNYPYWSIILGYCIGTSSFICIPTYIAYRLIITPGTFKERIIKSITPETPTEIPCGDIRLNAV
Chain of DAT (Q01959 whole entry): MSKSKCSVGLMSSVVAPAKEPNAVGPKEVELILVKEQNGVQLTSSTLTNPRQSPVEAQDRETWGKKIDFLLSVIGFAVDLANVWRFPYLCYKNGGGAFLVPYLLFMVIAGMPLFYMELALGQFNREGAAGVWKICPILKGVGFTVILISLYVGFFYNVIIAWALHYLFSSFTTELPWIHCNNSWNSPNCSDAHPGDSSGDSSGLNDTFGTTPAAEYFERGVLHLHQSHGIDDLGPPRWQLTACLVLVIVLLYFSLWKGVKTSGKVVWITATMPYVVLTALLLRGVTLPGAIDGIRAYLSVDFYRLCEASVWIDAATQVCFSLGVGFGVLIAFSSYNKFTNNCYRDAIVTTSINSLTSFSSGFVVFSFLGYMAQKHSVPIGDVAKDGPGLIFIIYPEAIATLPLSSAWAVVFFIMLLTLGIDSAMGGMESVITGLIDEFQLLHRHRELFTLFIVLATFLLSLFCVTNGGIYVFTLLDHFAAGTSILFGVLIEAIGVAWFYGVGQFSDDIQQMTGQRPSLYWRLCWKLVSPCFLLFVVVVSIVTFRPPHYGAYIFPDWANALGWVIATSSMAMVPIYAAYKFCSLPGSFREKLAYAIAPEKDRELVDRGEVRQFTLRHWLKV
Procedure for OCT1: All transport experiments were carried out in HEK293 cells stably overexpressing human MATs or OCTs. […] All cells were regularly cultivated in DMEM supplemented with 10% (v/v) FCS, penicillin (100 U/mL) and streptomycin (100 μg/mL)and kept in culture for no longer than 30 passages.
For the uptake experiments, 300,000 cells were plated in poly-D-lysine precoated 24-well plates 48 h ahead of the transport experiment. On the day of experiment, cells were initially washed once with 37 °C pre-warmed HBSS+ (Hanks buffered salt solution supplemented with 10 mM HEPES) and subsequently incubated with the substrates dissolved in pre-warmed HBSS+ for exactly two minutes. Incubation was stopped by adding ice-cold HBSS+ followed by two washing steps. After this, cells were lysed with 80% acetonitrile containing 10 ng/mL milnacipran as internal standard for high-performance liquid chromatography coupled to tandem mass spectrometry (HPLC-MS/MS) analysis. For every experiment, two additional wells per cell line were lysed using RIPA buffer for protein quantification. Total protein was quantified using the bicinchoninic acid assay [42]. This was later used for normalization of the uptake data.
Intracellularly accumulated test substances were quantified by HPLC-MS/MS analysis using a Shimadzu Nexera HPLC system with a SIL-30AC autosampler, a CTO-20AC column oven, a LC-30AD pump, and a CBM-20A controller (Shimadzu, Kyoto, Japan). Stereoselective chromatography was carried out on a [sequence] CBH HPLC column (100 × 3 mm inner dimension with 5 μM particle size; Sigma-Aldrich, Darmstadt, Germany) with a corresponding 10 × 3 mm guard column. Reversed phased chromatography was carried out using an ammonium acetate (NH4Ac) buffered aqueous mobile phase with isopropyl alcohol (IPA) as organic solvent. […] The order of elution of the enantiomers was obtained from available reference literature [43] or by applying enantiopure reference compounds to the chiral HPLC. […] Given the structural similarity of the investigated substances and the fact that separation was performed on the same column with almost identical mobile phases, we assume that this order of elution for our compound set is always the (R)- before the (S)-enantiomer.
Detection was performed with an API 4000 tandem mass spectrometer (AB SCIEX, Darmstadt, Germany) operating in multiple-reaction-monitoring mode. Quantification was performed using the Analyst 1.6.2 software (AB SCIEX, Darmstadt, Germany) and quantified by comparison to standard curves with known concentrations.
All uptake data were normalized to protein content to account for variation in the number of seeded sells. Transporter-mediated net uptake was calculated by subtracting uptake into empty vector-transfected control cells from uptake into transporter-transfected cells. Kinetic parameters were then determined after non-linear regression following the Michaelis–Menten equation (v = vmax × [S]/(Km + [S])) using GraphPad Prism (Version 5.01 for Windows, GraphPad Software, La Jolla, CA, USA). Vmax refers to the maximum transport velocity and Km is defined as the substance concentration required to reach half of vmax. The intrinsic clearance Clint was calculated as the quotient of vmax over Km.

For `CNCC(O)c1ccc(O)c(OC)c1` (centres unmarked) [Metanephrine], the selectivity ratio at 2 min, 100 μM in the data set on OCT2 A270S variant [1] (given as for (R)) is 2.26; at OCT2 (wild-type), 2.78.
With `NCC(O)c1ccccc1` (centres unmarked) [Bisnorephedrine], the selectivity ratio at 2 min, 100 μM with OCT2 A270S variant [1] (given as for (S)) is 1.09; on OCT2 (wild-type), 1.1.
For `CNCC(O)c1ccccc1` (centres unmarked) [Halostachine], the selectivity ratio at 2 min, 100 μM in the data set on OCT2 A270S variant [1] (given as for (R)) was 1.32; on OCT2 (wild-type) it was 1.42.
As for `CNCC(O)c1ccccc1` (centres unmarked) [Halostachine-2, Halostachine], in data set [2] (given as for A270S), the selectivity ratio at 2 min, 100 μM worked out at 1.05. The Saturable net uptake result at SERT, on NET (NET), on DAT (DAT), on OCT3 (OCT3) and on OCT1 (OCT1) was “No saturable net uptake” in each case. For the same compound, the “Clint ± SEM” value at OCT2 is 13.6 mL × g Protein^−1 × min^−1.
Turning to `NC[C@H](O)c1ccccc1` [(R)-Bisnorephedrine], the Saturable net uptake entry at SERT was “No saturable net uptake”. The “Vmax ± SEM” value at NET (HEK293 cells overexpressing human NET, racemic substrate, two minutes, net uptake) is 9.50 pmol × mg Protein^−1 × min^−1; on DAT (HEK293 cells overexpressing human DAT, racemic substrate, two minutes, net uptake) it was 27.2 pmol × mg Protein^−1 × min^−1; on OCT3 (HEK293 cells overexpressing human OCT3, racemic substrate, two minutes, net uptake) it was 662 pmol × mg Protein^−1 × min^−1; on OCT1 (HEK293 cells overexpressing human OCT1, racemic substrate, two minutes, net uptake), 218 pmol × mg Protein^−1 × min^−1; at OCT2 (HEK293 cells overexpressing human OCT2, racemic substrate, two minutes, net uptake) it was 847 pmol × mg Protein^−1 × min^−1. The “Clint ± SEM” value at NET (NET, quotient of vmax over Km) was 46.1 mL × g Protein^−1 × min^−1; on DAT (DAT, quotient of vmax over Km) it was 6.21 mL × g Protein^−1 × min^−1; on OCT3 (OCT3, quotient of vmax over Km), 4.00 mL × g Protein^−1 × min^−1; at OCT1 (OCT1, quotient of vmax over Km), 1.17 mL × g Protein^−1 × min^−1; on OCT2 it was 22.6 mL × g Protein^−1 × min^−1. In addition, the “Stereoselectivity Km” value stood at 1.01 fold at NET (NET, ratio between enantiomers, given as for (R) or for 1 (first-eluting)); 1.18 fold at DAT (DAT, ratio between enantiomers, given as for (S) or for 2 (second-eluting)); 1.08 fold on OCT3 (OCT3, ratio between enantiomers, given as for (R) or for 1 (first-eluting)); 1.15 fold on OCT1 (OCT1, ratio between enantiomers, given as for (R) or for 1 (first-eluting)). Besides, the “Stereoselectivity ClInt” value on NET (setting [4]) is given as 1.24 fold; at DAT (DAT, ratio between enantiomers, printed as for (R) or for 1 (also 1.00-fold for (R/S))), 1.01 fold; on OCT3 (OCT3, ratio between enantiomers, given as for (R) or for 1 (also 1.00-fold for 1/2)), 1.04 fold; at OCT1 (OCT1, ratio between enantiomers, given as for (R) or for 1 (also 1.00-fold for 1/2)) it was 1.03 fold. The “Stereoselectivity Vmax” value is 1.23 fold on NET (setting [4]); 1.17 fold at DAT (DAT, ratio between enantiomers, given as for (S) or for 2); 1.13 fold on OCT3 (OCT3, ratio between enantiomers, given as for (R) or for 1); 1.19 fold at OCT1 (OCT1, ratio between enantiomers, given as for (R) or for 1). The Km (usually the substrate concentration at which the rate is half of its maximum) on NET (read-out: Km ± SEM, HEK293 cells overexpressing human NET, racemic substrate, two minutes, net uptake minus empty vector control) turned out to be 0.206 µM; at DAT (read-out: Km ± SEM, HEK293 cells overexpressing human DAT, racemic substrate, two minutes, net uptake minus empty vector control), 4.38 µM; on OCT3 (read-out: Km ± SEM, HEK293 cells overexpressing human OCT3, racemic substrate, two minutes, net uptake minus empty vector control), 165 µM; at OCT1 (read-out: Km ± SEM, HEK293 cells overexpressing human OCT1, racemic substrate, two minutes, net uptake minus empty vector control), 187 µM. This compound also yielded a Transporter selectivity in the data set with OCT2 A270S variant [3] of 1.50 fold.
For the compound `COc1cc(C(O)CN)ccc1O` (centres unmarked) [Normetanephrine], the selectivity ratio at 2 min, 100 μM in the data set on OCT2 A270S variant [1] (given as for (R)) was 1.7; on OCT2 (wild-type) it was 1.91.
As to `CNCC(O)c1ccccc1` (centres unmarked) [Halostachine-1, Halostachine], the selectivity ratio at 2 min, 100 μM in data set [2] (given as for WT) came out at 1.02. Also, the Saturable net uptake result at SERT, at NET (NET), on DAT (DAT), at OCT3 (OCT3) and on OCT1 (OCT1) was “No saturable net uptake” in each case. Moreover, on OCT2, the “Clint ± SEM” value is reported as 25.7 mL × g Protein^−1 × min^−1. Moreover, the selectivity ratio at 2 min on OCT2 (Stereoselectivity ClInt, given as for (R) or for 1) is 1.89; on OCT2 (Stereoselectivity Km, given as for (S) or for 2 (second-eluting)) it was 1.5; on OCT2 (Stereoselectivity Vmax, given as for (R) or for 1), 1.26.
